Source: patent US8575135B2 (Gilead Sciences, Inc., priority 2011, dated 2013)
Like-named read-outs stand apart in the source and are kept apart here.

Key:
Assay in all cases: microbe, parasite or virus in culture
[1] = test system: stable HCV 1a RLuc replicon cells (genotype 1a H77 replicon); assay type: cell-based; conditions: Hepatitis C virus
[2] = test system: stable HCV 1b RLuc replicon cells (genotype 1b Con1 replicon); assay type: cell-based; conditions: Hepatitis C virus, read-out: 1b (nM)
[3] = test system: stable HCV 2a JFH-1 Rluc replicon cells (L31 present in NS5A); assay type: cell-based; conditions: Hepatitis C virus
[4] = test system: NS5A chimeric genotype 2a JFH-1 replicon with genotype 2a J6 strain NS5A gene (M31 present); assay type: cell-based, HCV; conditions: Hepatitis C virus
[5] = test system: NS5A chimeric genotype 2a JFH-1 replicon with genotype 2b MD2b-1 strain NS5A gene (M31 present); assay type: cell-based, HCV; conditions: Hepatitis C virus
Outline: (§1)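 Con1-based 3a and 4a chimeras carried a Pi-RLuc reporter and were transiently transfected into Huh-Lunet cells; the JFH-1-based 2b chimera (RLuc-Neo) was used transiently or as stable replicon cells.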

[6] = test system: NS5A chimeric genotype 1b Con1 replicon with genotype 3a S52 strain NS5A gene; assay type: cell-based, HCV; conditions: Hepatitis C virus
Outline: as §1

[7] = test system: NS5A chimeric genotype 1b Con1 replicon with genotype 4a ED43 strain NS5A gene; assay type: cell-based, HCV; conditions: Hepatitis C virus
[8] = test system: 1a Pi-Rluc replicon with Q30R in genotype 1a NS5A; assay type: cell-based, HCV; conditions: Hepatitis C virus
Outline: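 Renilla luciferase replicon assay: 1a Pi-RLuc replicon carrying NS5A Q30R, transfected transiently into cured-51 (Huh-7-derived) cells.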

SMILES | EC50 ([1]; read-out: 1a) [nM] | EC50 ([1]; read-out: 1a (nM)) [nM] | EC50 [2] [nM] | EC50 ([3]; read-out: 2a JFH) [nM] | EC50 ([3]; read-out: 2a JFH (nM)) [nM] | EC50 ([4]; read-out: 2a J6) [nM] | EC50 ([4]; read-out: 2a Jb (t) (nM)) [nM] | EC50 ([5]; read-out: 2b) [nM] | EC50 ([5]; read-out: 2b (t) (nM)) [nM] | EC50 ([6]; read-out: 3a) [nM] | EC50 ([6]; read-out: 3a (nM)) [nM] | EC50 ([4]; read-out: 2a J6 (s) (nM)) [nM] | EC50 ([5]; read-out: 2b (s) (nM)) [nM] | EC50 ([7]; read-out: 4a) [nM] | EC50 ([7]; read-out: 4a (s) (nM)) [nM] | EC50 ([7]; read-out: 4a (t) (nM)) [nM] | EC50 ([8]; read-out: 1a Q30R) [nM] | EC50 ([8]; read-out: 1a Q30R (nM)) [nM]
CCC(C)[C@H](NC(=O)OC)C(=O)N1C[C@@H](C)CC1c1ncc(-c2ccc3c(c2)COc2cc4c(ccc5nc([C@@H]6CC(COC)CN6C(=O)[C@@H](NC(=O)OC)C(C)C)[nH]c54)cc2-3)[nH]1 (stereo in doubt) [Example QC, Methyl {(2S)-1-[(2S,4S)-2-(9-{2-[(2S,4S)-1-{(2S,3R)-2-[(methoxycarbonyl)amino]-3-methylpentanoyl}-4-methylpyrrolidin-2-yl]-1H-imidazol-5-yl}-1,11-dihydroisochromeno[4′,3′:6,7]naphtho[1,2-d]imidazol-2-yl)-4-(methoxymethyl)pyrrolidin-1-yl]-3-methyl-1-oxobutan-2-yl}carbamate] | < 1 | 0.012 | 0.014 | < 1 | 0.008 | < 1 | 0.157 | < 1 | 0.317 | – | – | – | – | – | – | – | – | –
CCC(C)[C@H](NC(=O)OC)C(=O)N1C[C@@H](C)CC1c1ncc(-c2ccc3c(c2)COc2cc4c(ccc5nc([C@@H]6CC(COC)CN6C(=O)[C@@H](NC(=O)OC)C(C)OC)[nH]c54)cc2-3)[nH]1 (stereo in doubt) [Example QD, Methyl {(2S,3R)-1-[(2S,4S)-2-(5-{2-[(2S,4S)-1-[N-(methoxycarbonyl)-O-methyl-L-allothreonyl]-4-(methoxymethyl)pyrrolidin-2-yl]-1,11-dihydroisochromeno[4′,3′:6,7]naphtho[1,2-d]imidazol-9-yl}-1H-imidazol-2-yl)-4-methylpyrrolidin-1-yl]-3-methyl-1-oxopentan-2-yl}carbamate] | < 1 | 0.025 | 0.03 | < 1 | 0.013 | < 1 | 0.103 | < 1 | 0.193 | – | – | – | – | – | – | – | – | –
CCO[C@H]1C[C@@H](c2nc3ccc4cc5c(cc4c3[nH]2)OCc2cc(-c3cnc([C@@H]4CCCN4C(=O)[C@@H](NC(=O)OC)C(C)C)[nH]3)ccc2-5)N(C(=O)[C@@H](NC(=O)OC)C(C)C)C1 [Example OQ, Methyl {(2S)-1-[(2S)-2-(5-{2-[(2S,4S)-4-ethoxy-1-{(2S)-2-[(methoxycarbonyl)amino]-3-methylbutanoyl}pyrrolidin-2-yl]-1,11-dihydroisochromeno[4′,3′:6,7]naphtho[1,2-d]imidazol-9-yl}-1H-imidazol-2-yl)pyrrolidin-1-yl]-3-methyl-1-oxobutan-2-yl}carbamate] | < 1 | 0.015 | – | < 1 | 0.007 | < 1 | 0.378 | < 1 | 0.265 | < 1 | 0.048 | 1.49 | 0.982 | < 1 | 0.016 | 0.02 | < 1 | 0.102
CCO[C@H]1C[C@@H](c2nc3ccc4cc5c(cc4c3[nH]2)OCc2cc(-c3cnc([C@@H]4CCCN4C(=O)[C@H](NC(=O)OC)c4ccccc4)[nH]3)ccc2-5)N(C(=O)[C@@H](NC(=O)OC)C(C)C)C1 [Example OR, Methyl {(1R)-2-[(2S)-2-(5-{2-[(2S,4S)-4-ethoxy-1-{(2S)-2-[(methoxycarbonyl)amino]-3-methylbutanoyl}pyrrolidin-2-yl]-1,11-dihydroisochromeno[4′,3′:6,7]naphtho[1,2-d]imidazol-9-yl}-1H-imidazol-2-yl)pyrrolidin-1-yl]-2-oxo-1-phenylethyl}carbamate] | < 1 | 0.03 | – | < 1 | 0.011 | < 1 | 0.068 | < 1 | 0.037 | < 1 | 0.031 | 0.16 | 0.109 | < 1 | 0.006 | 0.036 | < 1 | 0.059
COC(=O)N[C@H](C(=O)N1C[C@@H](C)C[C@H]1c1nc2ccc3cc4c(cc3c2[nH]1)OCc1cc(-c2cnc([C@@H]3C[C@H](C)CN3C(=O)[C@H](NC(=O)OC)c3ccccc3)[nH]2)ccc1-4)C(C)C [Example PG, methyl {(1R)-2-[(2S,4S)-2-(5-{2-[(2S,4S)-1-{(2S)-2-[(methoxycarbonyl)amino]-3-methylbutanoyl}-4-methylpyrrolidin-2-yl]-1,11-dihydroisochromeno[4′,3′:6,7]naphtho[1,2-d]imidazol-9-yl}-1H-imidazol-2-yl)-4-methylpyrrolidin-1-yl]-2-oxo-1-phenylethyl}carbamate] | < 1 | 0.033 | – | < 1 | 0.018 | < 1 | 0.045 | < 1 | 0.027 | < 1 | 0.05 | 0.335 | 0.119 | < 1 | 0.008 | 0.063 | < 1 | 0.043
COC(=O)N[C@H](C(=O)N1[C@H](c2nc3ccc4cc5c(cc4c3[nH]2)OCc2cc(-c3cnc(C4CCCN4C(=O)[C@H](NC(=O)OC)c4ccccc4)[nH]3)ccc2-5)C[C@@H]2CCC[C@@H]21)C(C)C (stereo partly drawn) [Example PN, methyl {(1R)-2-[2-(5-{2-[(2S,3aS,6aS)-1-{(2S)-2-[(methoxycarbonyl)amino]-3-methylbutanoyl}octahydrocyclopenta[b]pyrrol-2-yl]-1,11-dihydroisochromeno[4′,3′:6,7]naphtho[1,2-d]imidazol-9-yl}-1H-imidazol-2-yl)pyrrolidin-1-yl]-2-oxo-1-phenylethyl}carbamate] | < 1 | 0.015 | – | < 1 | 0.009 | < 1 | 0.027 | < 1 | 0.014 | < 1 | 0.016 | 0.277 | 0.035 | < 1 | 0.02 | 0.014 | < 1 | 0.03
COC(=O)N[C@H](C(=O)N1[C@H](c2nc3ccc4cc5c(cc4c3[nH]2)OCc2cc(-c3cnc(C4CCCN4C(=O)[C@@H](NC(=O)OC)C4CCOCC4)[nH]3)ccc2-5)C[C@@H]2CCC[C@@H]21)C(C)C (stereo partly drawn) [Example PP, methyl [(1S)-2-[2-(5-{2-[(2S,3aS,6aS)-1-{(2S)-2-[(methoxycarbonyl)amino]-3-methylbutanoyl}octahydrocyclopenta[b]pyrrol-2-yl]-1,11-dihydroisochromeno[4′,3′:6,7]naphtho[1,2-d]imidazol-9-yl}-1H-imidazol-2-yl)pyrrolidin-1-yl]-2-oxo-1-(tetrahydro-2H-pyran-4-yl)ethyl]carbamate] | < 1 | 0.014 | – | < 1 | 0.011 | < 1 | 0.061 | < 1 | 0.038 | < 1 | 0.019 | 0.403 | 0.11 | < 1 | 0.011 | 0.027 | < 1 | 0.043
COC[C@H]1C[C@@H](c2ncc(-c3ccc4c(c3)COc3cc5c(ccc6nc([C@@H]7CC[C@H](C)N7C(=O)[C@@H](NC(=O)OC)C(C)C)[nH]c65)cc3-4)[nH]2)N(C(=O)[C@@H](NC(=O)OC)C(C)C)C1 [Example PZ, Methyl {(2S)-1-[(2S,5S)-2-(9-{2-[(2S,4S)-1-{(2S)-2-[(methoxycarbonyl)amino]-3-methylbutanoyl}-4-(methoxymethyl)pyrrolidin-2-yl]-1H-imidazol-5-yl}-1,11-dihydroisochromeno[4′,3′:6,7]naphtho[1,2-d]imidazol-2-yl)-5-methylpyrrolidin-1-yl]-3-methyl-1-oxobutan-2-yl}carbamate] | < 1 | 0.009 | – | < 1 | 0.005 | < 1 | 0.175 | < 1 | 0.071 | < 1 | – | 1.71 | 0.386 | – | 0.025 | – | < 1 | 0.057
